# Reference: PMC12408683 (Archives of Toxicology, 2025)
# What was measured:
# [1] = system: HepG2-CYP1A2 cells; conditions: positive control
# Method: The CBMN assay was performed according to the OECD test guideline #487. Therefore, 2 × 10^5 cells were seeded in 3.5 cm dishes and allowed to adhere for 24 h. […] After the 24 h treatment, the medium was discarded and the cells were incubated with fresh medium, containing 6 µg/mL cytochalasin B as cytokinesis inhibitor. The cells were then left to grow for 72 h, allowing for 1.5–2 × cell cycles. Subsequently, the cells were rinsed with PBS and fixed with ice-cold methanol for 10 min at –20 °C. Cells were washed and embedded with Vectashield® containing DAPI (Vector Labs, Burlingame, CA, USA). The samples were analysed with a Zeiss Axio Observer 7 microscope equipped with an Axiocam 305 mono and a 63 × oil immersion objective (plan-apochromat 63x/1.40 DIC M27) using ZEN Software 3.2. 500 binucleated cells per sample were analysed for micronuclei formation.
# As benchmark response (BMR) for all concentration–response curves (adducts, micronuclei), a 2.0-fold increase vs. solvent control was used (BMC100, critical effect size = 1). The determined BMC100 and the corresponding upper and lower boundary (BMCU and BMCL, respectively) of the 90% confidence interval (CI) were used for potency comparison.
# [2] = system: HepG2 cells; experiment: Resazurin reduction assay (cytotoxicity) in HepG2 cells; conditions: positive control 10 µM, time-dependent
# [3] = system: HepG2-CYP1A2 cells; experiment: Alkaline comet assay (DNA strand breaks) in HepG2-CYP1A2 cells; conditions: positive control, 200 µM, 20 min
# Method: (§1) As a positive control, tBuOOH (20 min, 200 µM) was used. Subsequently, the alkaline comet assay was performed to quantify DNA strand breaks as previously described (Haas et al. [2023b]). Per sample, at least 50 comets were counted with Comet IV software (Instem, Staffordshire, UK) using a Zeiss Axio Observer 7 microscope equipped with an Axiocam 305 mono and ZEN 3.2 software (Carl Zeiss, Jena, Germany).
# [4] = system: HepG2 cells; conditions: positive control, 200 µM, 20 min
# Method: as §1
# [5] = system: calf thymus DNA; parameters: method as in Bergau et al. 2021; conditions: ref Bergau et al. 2021; cited from earlier work
# [6] = system: human liver biopsies; parameters: method as in Herrmann et al. 2013; conditions: ref Herrmann et al. 2013; cited from earlier work
# [7] = parameters: method as in Carlsson et al. 2022; conditions: concentrations below 25 µM; ref Carlsson et al. 2022; cited from earlier work
# [8] = parameters: method as in Carlsson et al. 2022; conditions: ref Carlsson et al. 2022; cited from earlier work
smiles,measurement,setting,value
"CO[C@@]12[C@H](COC(N)=O)C3=C(C(=O)C(C)=C(N)C3=O)N1C[C@@H]1N[C@@H]12 [MMC, mitomycin C, reference compound]",MN (CBMN),[1],robust increase in MN
"COc1cc([C@@H]2c3cc4c(cc3[C@@H](O[C@@H]3O[C@@H]5CO[C@@H](C)O[C@H]5[C@H](O)[C@H]3O)[C@H]3COC(=O)[C@H]23)OCO4)cc(OC)c1O [etoposide, reference compound]",cytotoxicity (resazurin reduction assay),[2],cytotoxic
"CC(C)(C)OO [tBuOOH, tert-butyl hydroperoxide, reference compound]",DNA strand breaks (alkaline comet assay),[3],strong DNA strand break induction
same,DNA strand breaks (alkaline comet assay),[4],strong DNA strand break induction
C/C=C/c1ccc(OC)cc1 [anethole],E3′-N2-dG adduct levels vs equimolar ES concentrations,[5],several times lower
"C=CCc1ccc(OC)c(OC)c1 [ME, methyleugenol]","ME-derived DNA adducts, median",[6],13 adducts/10^8 nts
"C=CC(O)c1ccc(OC)c(OC)c1 (centres unmarked) [1′OH-ME, 1′-hydroxymethyleugenol]",cytotoxicity,[7],not cytotoxic
same,alkaline comet assay outcome,[8],negative
